{"source": "paper PMC7762957", "about": "“Snapshots during the catalytic cycle of a histidine acid phytase reveal an induced-fit structural mechanism” (The Journal of Biological Chemistry, 2020)", "key": {"BtMINPP": {"target": "T1, BtMINPP (Bacteroides thetaiotaomicron, UniProt Q89YI8)", "T1 construct": "gene BT_4744", "T1 sequence (Q89YI8 21-425)": "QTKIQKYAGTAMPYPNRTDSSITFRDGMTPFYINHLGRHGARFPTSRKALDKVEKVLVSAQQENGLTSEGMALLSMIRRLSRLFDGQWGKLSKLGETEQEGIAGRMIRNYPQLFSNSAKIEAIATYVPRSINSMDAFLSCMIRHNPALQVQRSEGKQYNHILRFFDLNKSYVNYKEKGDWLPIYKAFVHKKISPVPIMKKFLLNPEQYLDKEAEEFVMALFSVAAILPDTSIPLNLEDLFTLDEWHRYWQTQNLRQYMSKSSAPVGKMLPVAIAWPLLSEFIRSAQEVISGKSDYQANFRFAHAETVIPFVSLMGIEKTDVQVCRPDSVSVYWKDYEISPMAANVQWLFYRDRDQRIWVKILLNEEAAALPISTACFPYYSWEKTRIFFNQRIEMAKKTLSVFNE", "experiment": "HPLC of inositol polyphosphate products", "type": "biochemical", "details": "pH 5.5, 200 mM sodium acetate, 150 mM NaCl; 1 mM substrate, 25 nM enzyme"}, "EcAppA": {"target": "T2, EcAppA (Escherichia coli, UniProt P07102)", "T2 construct": "gene appA; pOPINB, N-terminal cleavable His tag, cytoplasmic expression in E. coli Shuffle Express T7; Ni-NTA and gel filtration", "T2 sequence (P07102 23-432)": "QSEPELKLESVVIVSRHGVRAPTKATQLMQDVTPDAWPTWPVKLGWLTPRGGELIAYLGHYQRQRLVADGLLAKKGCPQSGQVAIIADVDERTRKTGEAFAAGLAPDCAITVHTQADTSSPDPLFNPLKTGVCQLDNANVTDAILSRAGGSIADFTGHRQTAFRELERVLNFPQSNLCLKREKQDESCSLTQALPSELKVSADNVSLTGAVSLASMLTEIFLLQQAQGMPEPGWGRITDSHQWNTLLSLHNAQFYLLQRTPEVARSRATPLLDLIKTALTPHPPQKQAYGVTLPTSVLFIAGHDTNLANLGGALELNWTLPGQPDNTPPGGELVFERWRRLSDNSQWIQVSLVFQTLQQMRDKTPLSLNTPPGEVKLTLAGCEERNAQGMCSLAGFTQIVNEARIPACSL", "experiment": "HPLC of inositol polyphosphate products", "type": "biochemical", "details": "pH 5.5, 200 mM sodium acetate, 150 mM NaCl; 1 mM substrate, 25 nM enzyme"}, "AnPhyA": {"target": "T3, AnPhyA (Aspergillus niger, UniProt P34752)", "T3 construct": "gene phyA; codon-optimised, N-terminal 3C site, C-terminal His6; secreted from Pichia pastoris KM71H; Ni-NTA purified", "T3 sequence (P34752 24-467)": "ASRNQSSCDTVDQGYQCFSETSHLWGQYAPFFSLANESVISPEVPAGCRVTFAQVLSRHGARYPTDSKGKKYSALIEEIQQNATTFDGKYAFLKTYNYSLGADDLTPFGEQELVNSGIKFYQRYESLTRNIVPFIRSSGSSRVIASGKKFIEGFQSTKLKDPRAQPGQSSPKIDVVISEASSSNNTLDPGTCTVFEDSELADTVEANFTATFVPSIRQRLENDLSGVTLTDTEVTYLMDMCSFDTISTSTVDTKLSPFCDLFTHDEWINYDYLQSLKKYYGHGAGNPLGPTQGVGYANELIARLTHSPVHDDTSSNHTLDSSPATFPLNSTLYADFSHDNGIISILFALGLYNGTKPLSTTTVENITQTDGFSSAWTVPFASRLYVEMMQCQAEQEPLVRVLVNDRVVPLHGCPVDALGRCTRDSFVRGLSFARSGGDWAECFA", "experiment": "HPLC of inositol polyphosphate products", "type": "biochemical", "details": "pH 5.5, 200 mM sodium acetate, 150 mM NaCl; 1 mM substrate, 25 nM enzyme"}, "BlMINPP": {"target": "BlMINPP (Bifidobacterium longum, UniProt B7GTV0)", "experiment": "X-ray crystal structure of complex, […] A", "type": "binding", "parameters": "gene Blon_0263; N-terminal His6 tag cleaved (WT: pOPINF, 3C protease; variants: pET28a, thrombin); E. coli Rosetta(DE3) pLysS", "details": "non-hydrolysable substrate analogue in active site, two orientations; co-crystallised with 1 mM InsS6"}, "purified protein": {"substrate": "O=P(O)(O)O[C@H]1[C@H](OP(=O)(O)O)[C@@H](OP(=O)(O)O)[C@H](OP(=O)(O)O)[C@@H](OP(=O)(O)O)[C@H]1OP(=O)(O)O", "experiment": "purified protein", "details": "pH 5.5, 200 mM sodium acetate, 0.15 M NaCl, room temperature, 25 nM enzyme"}}}
{"molecule": "O=P(O)(O)O[C@H]1[C@H](OP(=O)(O)O)[C@@H](OP(=O)(O)O)[C@H](OP(=O)(O)O)[C@@H](OP(=O)(O)O)[C@H]1OP(=O)(O)O", "note": "[InsP6, myo-Inositol 1,2,3,4,5,6-hexakisphosphate]", "values": [{"measurement": "HPLC of inositol polyphosphate products", "setting": "BtMINPP", "result": "HPLC chromatograms of the products of InsP6 hydrolysis by BlMINPP, BtMINPP"}, {"measurement": "HPLC of inositol polyphosphate products", "setting": "EcAppA", "result": "E.coli AppA, which is accepted to possess high positional specificity"}, {"measurement": "HPLC of inositol polyphosphate products", "setting": "AnPhyA", "result": "products of InsP6 hydrolysis by BlMINPP, BtMINPP, A. niger PhyA (AnPhyA)"}]}
{"molecule": "O=S(=O)(O)O[C@H]1[C@H](OS(=O)(=O)O)[C@@H](OS(=O)(=O)O)[C@H](OS(=O)(=O)O)[C@@H](OS(=O)(=O)O)[C@H]1OS(=O)(=O)O", "note": "[InsS6]", "values": [{"measurement": "X-ray crystal structure of complex, 1.84 A", "setting": "BlMINPP", "result": "A crystal of the purified recombinant enzyme grown in the presence of an excess InsS6"}]}
{"molecule": "BlMINPP (Bifidobacterium longum subsp. infantis ATCC 15697 = JCM 1222 = DSM 20088) (protein) MEADGRYYSSKQPYVAPNDATASSYSKAPKGYGPIYTESMARHGSRGLSSYKYDALLMRMAETAARDGGFKSEAIKAEFVKNLSGITAANVENGYGMLTGQGAQQHYGIGERAYQRNRSLFDQAAADGGTIAYQSSGEARATESGENFEKGFNEASGGRLIGNVSAPTNPADSGNGKDFQKNPDTLYFHKVQNPDGTSKVPGTKAYDIANNYQNFVANDATIAGAEKTIGDNVDVKRASHDLLSQIFTEEFLAKLENGEYKWYNTTDGTKKGGKNCAPGADASKDPDACGEVSKKIKSEYDAAMDLYNLYIIAADMHNENTGDHTFAFDQYFQGAYADDARMFAWALDAEDFYEKGPSYAGQNETYSIAQPLLDDFLNTIDARVNGGSTVATFRFAHAETMMPFAALLGLPGSTQQAPASTTDVYTYGNNEWRGESVTPMAANVQWDVYARKGEDPATGQRYTPIVRMLYNENEVPFRSECTPVADGSTWYKLTELKSCLAADHKTLGQDARI", "values": [{"measurement": "Km", "setting": "purified protein", "result": "54.5 ± 8.4", "unit": "µM"}, {"measurement": "kcat", "setting": "purified protein", "result": 46.8, "unit": "s⁻¹"}, {"measurement": "kcat/Km", "setting": "purified protein", "result": 900000, "unit": "M⁻¹ s⁻¹"}]}
